Several values for one entry are separate records, joined by “and”; a condition that tells them apart may be missing. Equal entries are not always repeated.
Columns and labels:
WT mice = test: Intestinal RI model in wild type mice (histopathology, immunohistochemistry); format: in vivo, mouse; settings: peptide i.v. five minutes prior to reperfusion
Experimental: (§1) Surgical protocol for RI was performed as previously described (Zhang et al. (2004) PNAS USA 101:3886-91). […] After 40 minutes of ischemia, the microclip was removed, and reperfusion of the mesenteric vasculature was confirmed by the return of pulsation to the vascular arcade and a change to pink color. The incision was closed, and all animals kept warm for 3 hours. Reconstituted RAG-1^−/− animals received either IgM mixed with peptide or saline in 0.2 ml volume intravenously 30 min before the initial laparotomy. WT animals were treated with saline or peptide i.v. 5 minutes prior to reperfusion. At the end of reperfusion, the ischemic segment of the jejunum was harvested and the central 4 cm was cut for pathological analysis.
(§2) Cryostat sections of intestinal tissues were stained by hematoxylin and eosin (H&E) and examined by light microscopy for mucosal damage. Pathology score was assessed based on procedure by Chiu (Chiu et al, Arch Surg 101: 484-488, 1970; Chiu, et al, Arch Surg 101: 478-483, 1970) that included direct inspection of all microvilli over a 4 cm stretch of jejuneum as described. Zhang et al. (2004) PNAS USA 101:3886-91. For immuno-fluorescence, cryosections fixed with 4% (w/v) paraformaldehyde were incubated for varying periods with either biotin-labeled anti-mouse IgM (Becton Dickinson, Calif.) followed by 1 hour with streptavidin-Alexa-568 (1:500 dilution, Molecular Probes, Oreg.). C4 deposition was detected by staining with FITC-labeled rabbit anti-huC4c (DAKO, Colo.), followed by anti-rabbit-Alexa 488 (Molecular Probes, Oreg.). The specificity of anti-C4c staining was confirmed by staining serial sections with biotin-labeled anti-mouse C4 for 1 hour followed by streptavidin-FITC (Becton Dickinson, Calif.). C3 deposition was detected by treating with FITC-labeled anti-C3 (DAKO, Colo.). Sections were mounted in Anti-fade Mounting Medium with DAPI (Molecular Probes, Oreg.).

RAG-1^−/− mice [1] = test: Intestinal RI model in reconstituted RAG-1^−/− mice (histopathology, immunohistochemistry); format: in vivo, mouse; settings: for mean pathology score: 40 min ischemia, 3 h reperfusion
Experimental: as §1, §2

IgM^CM-31 = test: SPR analysis of peptide binding to control IgM^CM-31-coupled surface; design: species or system mouse; settings: peptide injected at 120 μM
Experimental: FIG. 9D is a graph showing the binding isotherm for the injection of the self-peptide N2 at 120 μM over a surface coupled with the control IgM^CM-31.
(§3) An IgM (IgM^CM-22 or IgM^CM-31) antibody was immobilized by amine coupling in a BiaCore SPR CM5™ chip flowcell at a density of 33,400 response units (RU) ˜33 ng/mm^2 as described. Vorup-Jensen et al, PNAS USA 100: 1873-1878, 2003. Briefly, a reference flow cell was prepared by coupling of ethanolamine-HCl. Peptides, diluted in PBS running buffer, were flowed separately over the IgM-coupled surface and the reference at a rate of 10 μl/min at 25° C. and with the data collection rate at 10 Hz. […] Binding isotherms were derived by subtracting the response in the reference cell from the response of the IgM-coupled surface. Following each run, the surface was regenerated by injecting 40 μl 0.05% (v/v) polyoxyethylenesorbitan monolaureate/PBS.

IgM^CM-22 [2] = test: SPR analysis of peptide binding to IgM^CM-22-coupled surface; design: species or system mouse; settings: calculated from steady-state response levels, 1:1 Langmuir fit; mean±SD, n=2; 25° C.
Experimental: FIG. 9A is a graph showing the surface plasmon resonance for the self-peptide N2. Binding isotherms for samples of the self-peptide N2 with concentration from 10.5 μM to 120 μM injected over the IgM^CM-22-coupled surface.
FIG. 9B is a graph showing the surface plasmon resonance for a control peptide. Binding isotherm for a same-length, random-sequence control peptide (AGCMPYVRIPTA; SEQ ID NO: 62), injected at a concentration of 117 μM over the IgM^CM-22-coupled surface.
as §3

IgM^CM-22 [3] = test: ELISA screening of M-13 phage clones on IgM^CM-22-coated plate; format: binding, mouse; settings: five phage clones compared, ELISA (FIG. 6A)
Text: FIG. 6A is a graph showing the ELISA screening of M-13 phage-display library for IgM^CM-22-specific peptides. Symbols: […]-P1 clone; X-P2 clone, ∘-P7 clone; ⋄-P8 clone. The plate was coated with a solution of IgM^CM-22 before addition of varying concentrations of phage-clones. The results are representative of at least three independent experiments.
A 12-mer M-13 phage display library (New England Biolab, Mass.) was screened by 4 rounds with MBL-beads coated with IgM^CM-22 and 2 rounds with IgM^CM-75 according to the manufacturer's recommendation. Phage clones were selected from the enriched pool and the nucleotide sequence of the relevant phage gene determined for at least ten clones. […]
ELISA was performed as described earlier (Zhang et al. (2004) PNAS USA 101:3886-91). Briefly, IgM binding to phage or phage-specific peptides was determined by coating a 96-well plate with saturating amounts of antigen. […] Binding of IgM to NMHC-II was determined by culturing 96-well plates previously coated with specific rabbit antibody (NMHC-II A & B; Covance Research Products; NMHC-II C a gift from Dr. Adelstein, NHLBI, NIH, Bethesda, Md.) or pan-myosin Hc (Sigma, Mo.) with intestinal lysates prepared from IgM^CM-22 reconstituted RAG-1^−/− mice either sham treated or treated for ischemia as described (Zhang et al. (2004) PNAS USA 101:3886-91). […]

IgM^CM-22 [4] = test: Titration of peptide with IgM^CM-22; design: species or system mouse; settings: previous titration of peptide with IgM^CM-22
IgM^CM-22 [5] = test: ELISA: synthetic peptide P8 inhibits IgM^CM-22 binding of phage clone P8; design: species or system mouse; settings: peptide added to IgM^CM-22-coated plate prior to 5×10^11 PFU phage; estimated; read-out: concentration of P8 peptide yielding 50% inhibition of phage P8 binding to IgM^CM-22
Experimental: FIG. 6B is a bar graph showing that the synthetic peptide P8 inhibits IgM^CM-22 binding of phage clone P8. ELISA was performed with varying concentrations of the synthetic peptide P8 added to the IgM^CM-22-coated plate prior to the addition of 5×10^11 PFU phage. The results are representative of at least three independent experiments.
(§4) ELISA was performed as described earlier (Zhang et al. (2004) PNAS USA 101:3886-91). Briefly, IgM binding to phage or phage-specific peptides was determined by coating a 96-well plate with saturating amounts of antigen. Subsequent to blocking, IgM was added (1 or 10 μg/ml) for 2 hr at 37° C. Plates were washed and then developed with alkaline phosphatase-labeled goat anti-mouse IgM (Sigma, MO). Binding of IgM to NMHC-II was determined by culturing 96-well plates previously coated with specific rabbit antibody (NMHC-II A & B; Covance Research Products; NMHC-II C a gift from Dr. Adelstein, NHLBI, NIH, Bethesda, Md.) or pan-myosin Hc (Sigma, Mo.) with intestinal lysates prepared from IgM^CM-22 reconstituted RAG-1^−/− mice either sham treated or treated for ischemia as described (Zhang et al. (2004) PNAS USA 101:3886-91). Lysates were prepared as described for immune precipitation (see below). Alkaline-phosphatase labeled goat anti-mouse IgM (Sigma, Mo.) was then used to detect bound IgM. […]

RAG-1^−/− mice [6] = settings: IgM-reconstituted sham controls (no ischemia); Zhang et al. (2004); cited from earlier work
[7] = tested on: antibody deficient mice (RAG-1); test: Intestinal I/R injury in antibody-deficient (RAG-1) mice reconstituted with hybridoma IgM; format: in vivo, mouse; settings: IgM injected intravenously 30 minutes before initial laparotomy, permeability index (FIG. 4)
Experimental: IgM or saline was injected intravenously 30 minutes before initial laparotomy. At the end of reperfusion, blood is obtained and permeability index is calculated as the ratio of ^125I counts of dried intestine versus that of blood. Values represent means±standard error; n equals the numbers of mice used in experimental groups. 1=WT plus normal saline; 2=RAG plus normal saline; 3=RAG plus IgM hybridoma CM-22; 4=WT sham control.
This finding was unexpected because they have a normal level of IgM in their blood. These findings led to the hypothesis that a special population of B cells termed B-1 cells are responsible for secreting the pathogenic IgM. […] To identify the specific antibody or antibodies responsible for injury, a panel of hybridoma clones were constructed from an enriched pool of peritoneal B-1 cells harvested from normal mice. The general approach for preparing hybridomas from enriched fraction of peritoneal cells includes harvesting peritoneal cells from mice treated 7 days earlier with IL-10 and subsequently enriched for CD23 negative B cells by negative selection with magnetic beads. Enriched B cells are analyzed by FACS following staining with IgM, Mac-1 and CD23 specific Mab. […]
Twenty-two IgM-secreting hybridoma clones were analyzed by pooling an equal amount of IgM product from each of the clones. […]

P8 peptide = test: ELISA: IgM binding to P8 peptide-coated plates; settings: plate coated with 50 μg/ml P8
Experimental: FIG. 6C is a bar graph showing specific binding of the P8 peptide to IgM^CM-22. The ELISA plates were coated with 50 μg/ml solution of P8 peptide, followed by addition of IgM^CM-22 or IgM^CM-75 at 1 or 10 μg/ml. IgM binding was detected with a biotinylated rat anti-mouse IgM followed by streptavidin-phosphatase and color reaction. The results are representative of at least three independent experiments.
as §4

[8] = tested on: non-muscle myosin heavy chain-II (NMHC-II) isoforms A, B and C; test: ELISA: IgM binding to captured NMHC-II from intestinal lysates; design: species or system mouse; settings: NMHC captured from jejuneum lysates of RAG-1^−/− mice
Text: FIG. 8B is a series of graphs showing results of in vitro binding assays of IgM^CM-22 to the isoforms of non-muscle myosin heavy chain-II (NMHC-II). ELISA plates were coated with monoclonal antibodies for 3 different isoforms of NMHC-II (upper left: isoform A, upper right: isoform B, lower left: isoform C and lower right: anti-pan myosin antibody). Bound myosin heavy chain from intestinal lysates was detected by IgM^CM-22 or IgM^CM-31. The results represent mean±standard error of OD 405 nm units and are representative of triplicate samples.
as §4, with “101:3886-91).” for “101:3886-91). Lysates were prepared as described for immune precipitation (see below). Alkaline-phosphatase labeled goat anti-mouse IgM (Sigma, Mo.) was then used to detect bound IgM.”

[9] = peptide mixed with IgM^CM-22 prior to injection in RAG-1^−/− mice

Molecule	IgM and complement deposition in reperfused tissues (immunohistology) (WT mice)	mean pathology score (WT mice)	IgM and complement deposition in reperfused jejuneum (immunohistology) (RAG-1^−/− mice [1]; [9])	mean pathology score (RAG-1^−/− mice [1]; [9])	SPR binding to IgM^CM-31-coupled surface (IgM^CM-31)	Kd (IgM^CM-22 [2]) [µM]	relative binding of phage clone to IgM^CM-22 (IgM^CM-22 [3])	optimal concentration sufficient to block 50-100 μg of IgM^CM-22 (0.1-0.2 μM) (IgM^CM-22 [4]) [µM]	IC50 (IgM^CM-22 [5]) [µM]	IgM and complement C4 and C3 deposition in reperfused jejuneum (immunohistology) (RAG-1^−/− mice [1]; RAG-1^−/− mice reconstituted with the IgM alone, following RI)	mean pathology score (RAG-1^−/− mice [1]; RAG-1^−/− mice reconstituted with the antibody alone)	IgM and complement deposition (immunohistology) (RAG-1^−/− mice [6])	restoration of I/R injury [7]	IgM binding to P8 peptide-coated plate (P8 peptide; IgM at 1 μg/ml)	IgM binding to P8 peptide-coated plate (P8 peptide; IgM at 10 μg/ml)	binding of IgM to all three isoforms of NMHC-II (ELISA) [8]
LMKNMDPLNDNV [N2]	blocked	8±5	no deposition of IgM and complement	13±8	no binding was observed	123 ± 61										
NGNNVNGNRNNN [P8]	no apparent deposits of IgM or complement	5.+−.3	no evidence of IgM or complement binding	6±3			bound with the highest efficiency	10	~10							
IgM^CM-22: natural IgM produced from hybridoma PTA-3507; heavy chain SEQ ID NO: 2, light chain SEQ ID NO: 8 (antibody, listed as Mus musculus) heavy: QVQLQQSGAELVKPGASVKISCKASGYAFSSYWMNWVKQRPGKGLEWIGQIYPGDGDTNYNGKFKGKATLTADKSSSTAYMQLSSLTSEDSAVYFCAREDYYGSDWYFDVWGTGTTVTVSSGKLAFFFLHIPF light: IVMTQSAASLAVSLGQRATISYRASKSVSTSGYSYMHWNQQKPGQPPRLLIYLVSNLESGVPARFSGSGSGTDFTLNIHPVEEEDAATYYCQHIRELTRSEGGPSWK										co-localization of IgM and complement C4 and C3 within the microvilli	31±13 and 31±10	No binding of IgM or complement	restored injury	neither IgM bound above background	significantly more	Above background binding

From patent US7442783B2, “Natural IgM antibodies and inhibitors thereof” (The CBR Institute for Biomedical Research, Inc., priority 2004, dated 2008)
